Measurements reported in the supplement of paper PMC4628005.

Assays:
Conditions in all cases: drug exposure time: 96 h
Quisinostat = compound: Cn1cc(CNCC2CCN(c3ncc(C(=O)NO)cn3)CC2)c2ccccc21 [Quisinostat]
Protocol: (§1)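 Breast cancer cell lines were grown in RPMI 1640 with 10% FBS on collagen I-coated 96-well plates and treated for 96 h (from 24 h after seeding) with 12 dilutions per drug, in triplicate. Growth was read by sulforhodamine B total-protein staining (absorbance 570 nm) relative to diluent control, and IC50 was calculated. The top dose was 1e-5 M for most drugs; Bortezomib went to 2e-5 M and Sirolimus and 17-AAG to 2e-6 M[…].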

Docetaxel = compound: CC(=O)O[C@@]12CO[C@@H]1C[C@H](O)[C@@]1(C)C(=O)[C@H](O)C3=C(C)[C@@H](OC(=O)[C@H](O)[C@@H](NC(=O)OC(C)(C)C)c4ccccc4)C[C@@](O)([C@@H](OC(=O)c4ccccc4)[C@H]21)C3(C)C [Docetaxel]
Protocol: as §1

Panobinostat = compound: Cc1[nH]c2ccccc2c1CCNCc1ccc(/C=C/C(=O)NO)cc1 [Panobinostat]
Protocol: as §1

Paclitaxel = compound: CC(=O)O[C@H]1C(=O)[C@@]2(C)[C@H]([C@H](OC(=O)c3ccccc3)[C@]3(O)C[C@H](OC(=O)[C@H](O)[C@@H](NC(=O)c4ccccc4)c4ccccc4)C(C)=C1C3(C)C)[C@]1(OC(C)=O)CO[C@@H]1C[C@@H]2O [Paclitaxel]
Protocol: as §1

MI-219 = compound: CC(C)(C)C[C@H]1N[C@@H](C(=O)NCC[C@H](O)CO)[C@H](c2cccc(Cl)c2)[C@@]12C(=O)Nc1cc(Cl)c(F)cc12 [MI-219]
Protocol: as §1

Erlotinib = compound: C#Cc1cccc(Nc2ncnc3cc(OCCOC)c(OCCOC)cc23)c1 [Erlotinib]
Protocol: as §1

Mitoxantrone = compound: O=C1c2c(O)ccc(O)c2C(=O)c2c(NCCNCCO)ccc(NCCNCCO)c21 [Mitoxantrone]
Protocol: as §1

Nutlin-3 = compound: COc1ccc(C2=N[C@@H](c3ccc(Cl)cc3)[C@@H](c3ccc(Cl)cc3)N2C(=O)N2CCNC(=O)C2)c(OC(C)C)c1 [Nutlin-3]
Protocol: as §1

Dasatinib = compound: Cc1nc(Nc2ncc(C(=O)Nc3c(C)cccc3Cl)s2)cc(N2CCN(CCO)CC2)n1 [Dasatinib]
Protocol: as §1

Brivanib = compound: Cc1cc2c(F)c(Oc3ncnn4cc(OC[C@@H](C)O)c(C)c34)ccc2[nH]1 [Brivanib]
Protocol: as §1

Vandetanib = compound: COc1cc2/c(=N/c3ccc(Br)cc3F)nc[nH]c2cc1OCC1CCN(C)CC1 [Vandetanib]
Protocol: as §1

5-Fluorouracil = compound: O=c1[nH]cc(F)c(=O)[nH]1 [5-Fluorouracil]
Protocol: as §1

Serdemetan = compound: c1ccc2c(CCNc3ccc(Nc4ccncc4)cc3)c[nH]c2c1 [Serdemetan]
Protocol: as §1

Azacitidine = compound: Nc1ncn([C@@H]2O[C@H](CO)[C@@H](O)[C@H]2O)c(=O)n1 [Azacitidine]
Protocol: as §1

Lapatinib = compound: CS(=O)(=O)CCNCc1ccc(-c2ccc3ncnc(Nc4ccc(OCc5cccc(F)c5)c(Cl)c4)c3c2)o1 [Lapatinib]
Protocol: as §1

Sorafenib = compound: CNC(=O)c1cc(Oc2ccc(NC(=O)Nc3ccc(Cl)c(C(F)(F)F)c3)cc2)ccn1 [Sorafenib]
Protocol: as §1

Sunitinib = compound: CCN(CC)CCNC(=O)c1c(C)[nH]c(/C=C2\C(=O)Nc3ccc(F)cc32)c1C [Sunitinib]
Protocol: as §1

Belinostat = compound: O=C(/C=C/c1cccc(S(=O)(=O)Nc2ccccc2)c1)NO [Belinostat]
Protocol: as §1

Tamoxifen = compound: CC/C(=C(\c1ccccc1)c1ccc(OCCN(C)C)cc1)c1ccccc1 [Tamoxifen]
Protocol: as §1

Decitabine = compound: Nc1ncn([C@H]2C[C@H](O)[C@@H](CO)O2)c(=O)n1 [Decitabine]
Protocol: as §1

Gefitinib = compound: COc1cc2ncnc(Nc3ccc(F)c(Cl)c3)c2cc1OCCCN1CCOCC1 [Gefitinib]
Protocol: as §1

Vorinostat = compound: O=C(CCCCCCC(=O)Nc1ccccc1)NO [Vorinostat]
Protocol: as §1

Methotrexate = compound: CN(Cc1cnc2nc(N)nc(N)c2n1)c1ccc(C(=O)N[C@@H](CCC(=O)O)C(=O)O)cc1 [Methotrexate]
Protocol: as §1

Sirolimus = compound: CO[C@H]1C[C@@H]2CC[C@@H](C)[C@@](O)(O2)C(=O)C(=O)N2CCCC[C@H]2C(=O)O[C@H]([C@H](C)C[C@@H]2CC[C@@H](O)[C@H](OC)C2)CC(=O)[C@H](C)/C=C(\C)[C@@H](O)[C@@H](OC)C(=O)[C@H](C)C[C@H](C)/C=C/C=C/C=C/1C [Sirolimus]
Protocol: (§2)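 Same SRB 96 h IC50 screen on breast cancer cell lines (RPMI 1640 + 10% FBS, collagen I-coated 96-well plates, triplicates, 12 dilutions), for drugs with a different dose range: Bortezomib up to 2e-5 M; Sirolimus and 17-AAG up to 2e-6 M. Sirolimus values at the 2e-6 M top dose are censored.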

Bortezomib = compound: CC(C)C[C@H](NC(=O)[C@H](Cc1ccccc1)NC(=O)c1cnccn1)B(O)O [Bortezomib]
Protocol: as §2

17-AAG = compound: C=CCNC1=C2C[C@@H](C)C[C@H](OC)[C@H](O)[C@@H](C)/C=C(\C)[C@H](OC(N)=O)[C@@H](OC)/C=C\C=C(/C)C(=O)NC(=CC1=O)C2=O [17-AAG]
Protocol: as §2

| Test System | IC50 (SRB growth assay) (Quisinostat) | IC50 (SRB growth assay) (Docetaxel) | IC50 (SRB growth assay) (Panobinostat) | IC50 (SRB growth assay) (Paclitaxel) | IC50 (SRB growth assay) (MI-219) | IC50 (SRB growth assay) (Erlotinib) | IC50 (SRB growth assay) (Mitoxantrone) | IC50 (SRB growth assay) (Nutlin-3) | IC50 (SRB growth assay) (Dasatinib) | IC50 (SRB growth assay) (Brivanib) | IC50 (SRB growth assay) (Vandetanib) | IC50 (SRB growth assay) (5-Fluorouracil) | IC50 (SRB growth assay) (Serdemetan) | IC50 (SRB growth assay) (Azacitidine) | IC50 (SRB growth assay) (Lapatinib) | IC50 (SRB growth assay) (Sorafenib) | IC50 (SRB growth assay) (Sunitinib) | IC50 (SRB growth assay) (Belinostat) | IC50 (SRB growth assay) (Tamoxifen) | IC50 (SRB growth assay) (Decitabine) | IC50 (SRB growth assay) (Gefitinib) | IC50 (SRB growth assay) (Vorinostat) | IC50 (SRB growth assay) (Methotrexate) | IC50 (SRB growth assay) (Sirolimus) | IC50 (SRB growth assay) (Bortezomib) | IC50 (SRB growth assay) (17-AAG) |
| --- | --- | --- | --- | --- | --- | --- | --- | --- | --- | --- | --- | --- | --- | --- | --- | --- | --- | --- | --- | --- | --- | --- | --- | --- | --- | --- |
| BT 474 | 1.85 nM | 0.891 nM | 3.31 nM | 2.18 nM | > 10000 nM | 1970 nM | 23.3 nM | > 10000 nM | 611 nM | > 10000 nM | 2770 nM | > 10000 nM | 2280 nM | > 10000 nM | > 10000 nM | 3500 nM | 5780 nM | 191 nM | 4130 nM | > 10000 nM | 731 nM | 376 nM | > 10000 nM | 0.119 nM | 5.49 nM | 19.5 nM |
| BT 549 | 12.4 nM | 0.598 nM | 11.1 nM | 1.44 nM | > 10000 nM | 6100 nM | 1.88 nM | > 10000 nM | 565 nM | 6300 nM | 3410 nM | 3720 nM | 1260 nM | > 10000 nM | 256 nM | 6040 nM | 3290 nM | 436 nM | 7410 nM | 256 nM | > 10000 nM | 764 nM | 22.4 nM | 0.597 nM | 3.97 nM | 58.4 nM |
| HCC 1937 | 43.9 nM | 1.08 nM | 42.1 nM | 4.02 nM | > 10000 nM | > 10000 nM | 76.6 nM | > 10000 nM | 4730 nM | > 10000 nM | 4060 nM | 5280 nM | 1050 nM | > 10000 nM | 1930 nM | 6230 nM | 6000 nM | 572 nM | 5720 nM | 1930 nM | > 10000 nM | 1760 nM | 65.5 nM | 5.98 nM | 5.14 nM | 26.7 nM |
| MDA-MB 231 | 16.1 nM | 0.535 nM | 15.5 nM | 1.49 nM | > 10000 nM | > 10000 nM | 2.65 nM | > 10000 nM | 67.6 nM | 6480 nM | 4800 nM | 2580 nM | 474 nM | > 10000 nM | 65.7 nM | 4270 nM | 2520 nM | 410 nM | 9790 nM | 65.7 nM | > 10000 nM | 1320 nM | 2.1 nM | 4.75 nM | 4.43 nM | 683 nM |
| MDA-MB-175 VII | 14.8 nM | 6.87 nM | 15.2 nM | 7.47 nM | 1360 nM | > 10000 nM | 12.6 nM | 3740 nM | 513 nM | > 10000 nM | 2450 nM | 4180 nM | 4890 nM | > 10000 nM | > 10000 nM | 6470 nM | > 10000 nM | 493 nM | 7370 nM | > 10000 nM | > 10000 nM | 898 nM | 595 nM | 1.27 nM | 8 nM | 15 nM |
| SKBR 7 | 7.17 nM | 0.338 nM | 15.9 nM | 1.07 nM | 3200 nM | > 10000 nM | 3.02 nM | 7530 nM | > 10000 nM | > 10000 nM | 7760 nM | 1580 nM | 798 nM | > 10000 nM | 2510 nM | 2400 nM | 5350 nM | 470 nM | 8320 nM | 2510 nM | > 10000 nM | 918 nM | 11.1 nM | 0.886 nM | 24.6 nM | 74.1 nM |
| SUM 149 PT | 6.79 nM | 0.226 nM | 8.96 nM | 1.31 nM | > 10000 nM | 766 nM | 1 nM | > 10000 nM | 70.6 nM | > 10000 nM | 877 nM | 7760 nM | 608 nM | > 10000 nM | 81 nM | 5590 nM | 3430 nM | 171 nM | 5210 nM | 81 nM | 2860 nM | 515 nM | 10.6 nM | 10.7 nM | 5.35 nM | 17.7 nM |
| SUM 159 PT | 8.78 nM | 0.71 nM | 8.19 nM | 2.95 nM | > 10000 nM | 5260 nM | 1.24 nM | > 10000 nM | 4060 nM | > 10000 nM | 5260 nM | 1680 nM | 547 nM | > 10000 nM | 46.7 nM | 3730 nM | 1960 nM | 213 nM | 6360 nM | 46.7 nM | > 10000 nM | 475 nM | 2.36 nM | 0.288 nM | 3.27 nM | 4.73 nM |
| SUM 185 PE | 5.45 nM | 2.17 nM | 8.38 nM | 4.07 nM | > 10000 nM | 9480 nM | 7.18 nM | > 10000 nM | > 10000 nM | 4530 nM | 2280 nM | > 10000 nM | 1140 nM | > 10000 nM | > 10000 nM | 2530 nM | 1040 nM | 352 nM | 5380 nM | > 10000 nM | > 10000 nM | 891 nM | > 10000 nM | 0.0747 nM | 8.04 nM | 8.53 nM |
| SUM 190 PT | 72.4 nM | 0.883 nM | 78 nM | 1.91 nM | > 10000 nM | 5250 nM | 20.8 nM | > 10000 nM | 223 nM | > 10000 nM | 4540 nM | > 10000 nM | 871 nM | > 10000 nM | > 10000 nM | 2060 nM | 3870 nM | 4610 nM | 8040 nM | > 10000 nM | > 10000 nM | 4730 nM | > 10000 nM | 0.548 nM | 6.51 nM | 79.5 nM |
| SUM 229 PE | 10.6 nM | 0.539 nM | 25.1 nM | 1.46 nM | > 10000 nM | 7630 nM | 6.3 nM | > 10000 nM | 387 nM | > 10000 nM | 1870 nM | 2960 nM | 292 nM | > 10000 nM | 27.2 nM | 5640 nM | 3320 nM | 1000 nM | 4170 nM | 27.2 nM | 7560 nM | 1820 nM | 25.7 nM | 0.201 nM | 5.42 nM | 19.8 nM |
